Patent US20040176431A1, “Antiproliferative 2-(sulfo-phenyl)-aminothiazole derivatives and pharmaceutical compositions, and methods for their use” (Pfizer, Inc., priority 2003, published 2004)

Target: T1, CDK4/cyclin D3 (Homo sapiens, UniProt P11802)
T1 construct: made in house; host or cells: insect cells (baculovirus co-infection)
Test: Inhibition of CDK4/Cyclin D retinoblastoma kinase activity;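 as to % Inhib CDK4/D @ 1 μM: relative to DMSO control wells without compound minus no-enzyme background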
Type: biochemical
Details: for % Inhib CDK4/D @ 0.1 μM / inhibition at 0.1 µM: test compound at 0.1 μM; for inhibition at 1 µM / % Inhib CDK4/D @ 1 μM: test compound at 1 μM (head line shifted: 'mM' printed beside 'Structure'); for inhibition at 1 µM: read-out: % Inhib CDK4/D @ 1 μM; for % Inhib CDK4/D @ 0.03 / inhibition at 0.03 µM: test compound at 0.03 (unit cell empty, head line shifted; μM); for inhibition at 0.1 µM: read-out: % Inhib CDK4/D @ 0.1 μM; for inhibition at 0.03 µM: read-out: % Inhib CDK4/D @ 0.03
In short: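 Human CDK4 with truncated cyclin D3 (1-264) from baculovirus-infected insect cells, 5 nM, phosphorylating His-tagged Rb fragment (386-928) with 25 μM [32P/33P]ATP in pH 7.4 HEPES/MgCl2, 2% DMSO, 30° C., 20 min (60 min for tight binders). Filter capture, phosphorimager; apparent Ki from competitive or tight-binding competitive fits.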

T1 sequence (P11802 whole entry): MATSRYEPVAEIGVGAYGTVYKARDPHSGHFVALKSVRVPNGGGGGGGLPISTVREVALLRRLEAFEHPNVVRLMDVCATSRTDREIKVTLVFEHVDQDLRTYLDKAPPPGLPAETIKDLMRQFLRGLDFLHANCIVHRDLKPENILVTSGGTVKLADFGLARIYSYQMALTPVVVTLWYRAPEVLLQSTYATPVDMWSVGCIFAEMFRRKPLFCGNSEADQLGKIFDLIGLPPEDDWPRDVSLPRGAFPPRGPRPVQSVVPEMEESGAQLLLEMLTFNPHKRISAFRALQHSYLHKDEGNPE
T1 sequence (P30281 1-264 partner limits assumed): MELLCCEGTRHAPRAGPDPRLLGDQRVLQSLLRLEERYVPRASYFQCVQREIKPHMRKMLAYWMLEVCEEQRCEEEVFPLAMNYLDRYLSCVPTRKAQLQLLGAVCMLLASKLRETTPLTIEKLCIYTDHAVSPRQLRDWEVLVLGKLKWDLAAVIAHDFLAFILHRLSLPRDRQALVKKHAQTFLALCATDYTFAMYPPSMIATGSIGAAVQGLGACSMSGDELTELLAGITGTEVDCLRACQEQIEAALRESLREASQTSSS

Row | Compound | % Inhib CDK4/D @ 0.1 μM [%] | inhibition at 1 µM [%] | % Inhib CDK4/D @ 0.03 [%] | % Inhib CDK4/D @ 1 μM [%] | inhibition at 0.1 µM [%] | inhibition at 0.03 µM [%]
1 | CCN(CC)C(=O)CS(=O)(=O)c1ccc(Nc2nc(N)c(C(=O)c3c(Cl)cccc3Cl)s2)cc1 [DD(161)] | −7 | 9.1 | −9.2 | – | – | –
2 | Cc1noc(C)c1CS(=O)(=O)c1ccc(Nc2nc(N)c(C(=O)c3c(Cl)cccc3Cl)s2)cc1 [DD(162)] | 13 | – | 5.8 | 14 | – | –
3 | CC(CN(C)C)CS(=O)(=O)c1ccc(Nc2nc(N)c(C(=O)c3c(Cl)cccc3Cl)s2)cc1 (stereo not drawn) [DD(163)] | – | 52.8 | – | – | 27 | -5.8
4 | COC(=O)/C=C/CS(=O)(=O)c1ccc(Nc2nc(N)c(C(=O)c3c(Cl)cccc3Cl)s2)cc1 [DD(164)] | 8.6 | – | −7.4 | −6.9 | – | –
5 | Nc1nc(Nc2ccc(S(=O)(=O)CCCO)cc2)sc1C(=O)c1c(Cl)cccc1Cl [DD(165)] | 10 | – | −1.8 | 34.3 | – | –
6 | C=CCCS(=O)(=O)c1ccc(Nc2nc(N)c(C(=O)c3c(Cl)cccc3Cl)s2)cc1 [DD(166)] | – | – | 3.5 | 14.5 | 14 | –
7 | Nc1nc(Nc2ccc(S(=O)(=O)CCN3CCCC3)cc2)sc1C(=O)c1c(Cl)cccc1Cl [DD(167)] | 17 | – | −2.5 | 0.8 | – | –
8 | Nc1nc(Nc2ccc(S(=O)(=O)Cc3ncon3)cc2)sc1C(=O)c1c(Cl)cccc1Cl [DD(168)] | 7.8 | 30.7 | 8.3 | – | – | –
9 | Nc1nc(Nc2ccc(S(=O)(=O)CC3CNC(=O)O3)cc2)sc1C(=O)c1c(Cl)cccc1Cl (stereo not drawn) [DD(169)] | 33 | – | 44 | 36.4 | – | –
10 | CN(C)CCCS(=O)(=O)c1ccc(Nc2nc(N)c(C(=O)c3c(Cl)cccc3Cl)s2)cc1 [DD(170)] | – | 25.8 | – | – | 18 | 22
11 | Nc1nc(Nc2ccc(S(=O)(=O)CCN3CCCCC3)cc2)sc1C(=O)c1c(Cl)cccc1Cl [DD(171)] | – | – | −29 | 17.1 | 21 | –
12 | Nc1nc(Nc2ccc(S(=O)(=O)CC3CO3)cc2)sc1C(=O)c1c(Cl)cccc1Cl (stereo not drawn) [DD(172)] | – | – | −26 | 24.9 | 24 | –
13 | CC(C)CCS(=O)(=O)c1ccc(Nc2nc(N)c(C(=O)c3c(Cl)cccc3Cl)s2)cc1 [DD(173)] | – | – | −11 | 14.5 | 17 | –
14 | COCCS(=O)(=O)c1ccc(Nc2nc(N)c(C(=O)c3c(Cl)cccc3Cl)s2)cc1 [DD(174)] | – | – | −16 | 24.6 | 24 | –
15 | Nc1nc(Nc2ccc(S(=O)(=O)CC(=O)Nc3ccccc3)cc2)sc1C(=O)c1c(Cl)cccc1Cl [DD(175)] | – | – | −14 | 12.4 | 23 | –
16 | Nc1nc(Nc2ccc(S(=O)(=O)CC3CC3)cc2)sc1C(=O)c1c(Cl)cccc1Cl [DD(176)] | – | – | – | 5.4 | 13 | 17
17 | COc1cccc(CS(=O)(=O)c2ccc(Nc3nc(N)c(C(=O)c4c(Cl)cccc4Cl)s3)cc2)c1 [DD(177)] | 15 | – | −29 | 3.2 | – | –
18 | Nc1nc(Nc2ccc(S(=O)(=O)CC3CCCO3)cc2)sc1C(=O)c1c(Cl)cccc1Cl (stereo not drawn) [DD(178)] | 16 | 16.6 | −27 | – | – | –
19 | CN1CCCC1CCS(=O)(=O)c1ccc(Nc2nc(N)c(C(=O)c3c(Cl)cccc3Cl)s2)cc1 (stereo not drawn) [DD(179)] | – | – | −1.1 | 9.4 | 24 | –
20 | CC1(CS(=O)(=O)c2ccc(Nc3nc(N)c(C(=O)c4c(Cl)cccc4Cl)s3)cc2)CO1 (stereo not drawn) [DD(180)] | 13 | – | −14 | 4.2 | – | –
21 | NC(=O)CS(=O)(=O)c1ccc(Nc2nc(N)c(C(=O)c3c(Cl)cccc3Cl)s2)cc1 [DD(181)] | – | 27.5 | −10 | – | 28 | –
22 | CCOC(=O)CCS(=O)(=O)c1ccc(Nc2nc(N)c(C(=O)c3c(Cl)cccc3Cl)s2)cc1 [DD(182))] | 17 | – | −12 | 5.4 | – | –
23 | CC(C)OC(=O)CS(=O)(=O)c1ccc(Nc2nc(N)c(C(=O)c3c(Cl)cccc3Cl)s2)cc1 [DD(183)] | 17 | – | 8.6 | 1.9 | – | –

Row | Compound | % Inhib CDK4/D @ 0.1 μM [%] | inhibition at 1 µM [%] | % Inhib CDK4/D @ 0.03 [%] | % Inhib CDK4/D @ 1 μM [%] | inhibition at 0.1 µM [%] | inhibition at 0.03 µM [%]
24 | CC(C)=CCS(=O)(=O)c1ccc(Nc2nc(N)c(C(=O)c3c(Cl)cccc3Cl)s2)cc1 [DD(184)] | – | – | 1.6 | −3.3 | 9 | –
25 | CCCS(=O)(=O)c1ccc(Nc2nc(N)c(C(=O)c3c(Cl)cccc3Cl)s2)cc1 [DD(185)] | – | – | 8.5 | 22.3 | 33 | –
26 | COC(=O)CS(=O)(=O)c1ccc(Nc2nc(N)c(C(=O)c3c(Cl)cccc3Cl)s2)cc1 [DD(186)] | – | – | 7 | 38.9 | 26 | –
27 | CN1CCCC(CS(=O)(=O)c2ccc(Nc3nc(N)c(C(=O)c4c(Cl)cccc4Cl)s3)cc2)C1 (stereo not drawn) [DD(187)] | – | – | 6 | −6.4 | 24 | –
28 | NC(=O)CCS(=O)(=O)c1ccc(Nc2nc(N)c(C(=O)c3c(Cl)cccc3Cl)s2)cc1 [DD(188)] | – | 25.9 | −11 | – | 35 | –
29 | Nc1nc(Nc2ccc(S(=O)(=O)CCO)cc2)sc1C(=O)c1c(Cl)cccc1Cl [DD(189)] | – | – | −19 | 32.2 | 31 | –
30 | CC(C)CCCS(=O)(=O)c1ccc(Nc2nc(N)c(C(=O)c3c(Cl)cccc3Cl)s2)cc1 [DD(190)] | – | – | −21 | 33.4 | 25 | –
31 | CC(C)CCOC(=O)CS(=O)(=O)c1ccc(Nc2nc(N)c(C(=O)c3c(Cl)cccc3Cl)s2)cc1 [DD(191)] | 31 | – | −24 | 9.3 | – | –
32 | CC(C)CCOC(=O)CS(=O)(=O)c1ccc(Nc2nc(N)c(C(=O)c3c(Cl)cccc3Cl)s2)cc1 [DD(192)] | 11 | – | 5.6 | −29 | – | –
33 | CC(C)CCOC(=O)CS(=O)(=O)c1ccc(Nc2nc(N)c(C(=O)c3c(Cl)cccc3Cl)s2)cc1 [DD(193)] | 31 | – | −2.9 | 61.1 | – | –
34 | CC(C)CCOC(=O)CS(=O)(=O)c1ccc(Nc2nc(N)c(C(=O)c3c(Cl)cccc3Cl)s2)cc1 [DD(194)] | 32 | – | −29 | 6.3 | – | –
35 | Nc1nc(Nc2ccc(S(=O)(=O)Cc3ccccc3)cc2)sc1C(=O)c1c(Cl)cccc1Cl [DD(195)] | – | 22.3 | – | – | 25 | 3.8
36 | CCC(CC)S(=O)(=O)c1ccc(Nc2nc(N)c(C(=O)c3c(Cl)cccc3Cl)s2)cc1 [DD(196)] | – | 14.4 | – | – | 15 | 1.3
37 | CC(=O)OCCS(=O)(=O)c1ccc(Nc2nc(N)c(C(=O)c3c(Cl)cccc3Cl)s2)cc1 [DD(197)] | – | – | 6.5 | 62.3 | 37 | –
38 | CC(C)OC(=O)CCS(=O)(=O)c1ccc(Nc2nc(N)c(C(=O)c3c(Cl)cccc3Cl)s2)cc1 [DD(198)] | – | 5.1 | – | – | 9.2 | -24
39 | Nc1nc(Nc2ccc(S(=O)(=O)CCN3CCOCC3)cc2)sc1C(=O)c1c(Cl)cccc1Cl [DD(199)] | – | – | −7.7 | 40.5 | 31 | –
40 | CC(C)(CO)CS(=O)(=O)c1ccc(Nc2nc(N)c(C(=O)c3c(Cl)cccc3Cl)s2)cc1 [DD(200)] | – | – | −13 | 22.4 | 22 | –
41 | CCN(CC)C(=O)CS(=O)(=O)c1ccc(Nc2nc(N)c(C(=O)c3c(Cl)cccc3Cl)s2)cc1 [DD(201)] | 36 | – | 3.5 | 10.3 | – | –
42 | Cc1noc(C)c1CS(=O)(=O)c1ccc(Nc2nc(N)c(C(=O)c3c(Cl)cccc3Cl)s2)cc1 [DD(202)] | 29 | – | 17 | 45.2 | – | –
43 | COC(=O)/C=C/CS(=O)(=O)c1ccc(Nc2nc(N)c(C(=O)c3c(Cl)cccc3Cl)s2)cc1 [DD(203)] | 37 | – | −5.5 | 33.7 | – | –
44 | COC(=O)/C=C/CS(=O)(=O)c1ccc(Nc2nc(N)c(C(=O)c3c(Cl)cccc3Cl)s2)cc1 [DD(204)] | 29 | – | −3.4 | 20.8 | – | –
45 | Nc1nc(Nc2ccc(S(=O)(=O)CCCO)cc2)sc1C(=O)c1c(Cl)cccc1Cl [DD(205)] | 43 | – | −4.1 | 56.4 | – | –
46 | C=CCCS(=O)(=O)c1ccc(Nc2nc(N)c(C(=O)c3c(Cl)cccc3Cl)s2)cc1 [DD(206)] | 24 | – | −11 | 47.3 | – | –
